Assay results reported in patent publication US20020049157A1, “Use of proteasome inhibitors for treating cancer, inflammation, autoimmune disease, graft rejection and septic shock” (priority 1998, published 2002).

Key:
p21^Cip1 = test: Immunoblotting of p21Cip1 level in T cells; type: cell-based, human; conditions: PHA; LAC 10 μM added once at the beginning
Method: Tonsillar T cells were stimulated with PHA (2 μg/ml) for 16 h, 40 or 64 h in the absence or presence of LAC (10 μM). For the 16 h and 40 h culture, LAC was added once at 0 h. For the 64 h culture, LAC was added once at 40 h. The cell lysates were resolved in 10% SDS-PAGE, and blotted onto PVDF membranes. The membranes were hybridized with rabbit anti-p27^Kip1 antisera (FIG. 9A) or with anti-p21^Cip1 antisera (FIG. 9B) followed by ^125-protein A. The experiments were performed three times, and similar results were obtained. Representative data is shown.
In addition to the cyclin levels, the CDK activities are also controlled by several low molecular weight inhibitors. We have examined in this study the effect of the proteasome on the CDK inhibitors p27^Kip1 (Hall et al., 1995, supra) and p21^Cip1 (el-Deiry et al., 1993, Cell 75:817). […] This is in agreement with previous reports (Hengst et al., 1996, Science 271:1861; Nourse et al., 1994, Nature 372:570). […] The blockage was less obvious when assayed at 40 h, probably because the gradual loss of LAC activity during the 40 h culture. […]
Immunoblotting was employed to evaluate the levels of Cyclin E, cyclin A, p21^Cip1 and p27^Kip1. […] The cleared lysates were quantitated for protein concentrations. […] The signals on the membrane were detected by [^125I]-protein A followed by autoradiography.

[1] = aqueous solutions of high pH; cited from earlier work
Tonsillar T cells = test: DNA fragmentation (DNA laddering) in T cells; type: cell-based, human
Method: Tonsillar T cells (A, B, and D) and Jurkat cells (C and E) were treated with LAC (10 μM for T cells and 6 μM for Jurkat cells). LAC was added at the beginning of the culture or 40 h after T cell activation as indicated. The cells were harvested at the time points as shown. They were evaluated for their viability with trypan blue exclusion (A, B, and C), and for their mode of cell death according to DNA fragmentation (D and E).
We next employed DNA laddering to study the mode of cell death caused by LAC, and the result of this experiment also reflected the degree of cell death after different treatments. […] After 24 h of LAC treatment, the ladders became less discrete, and this probably reflected further DNA breakdown.
The assay was performed according to a protocol described by Liu et al (Liu et al., 1997, Cell. 89:175) with some modifications. Briefly, 2-6 million cells were re-suspended in 50 μl PBS followed by 300 μl lysis buffer (100 mM Tris-HCl, pH 8.0, 5 mM EDTA, 0.2 M NaCl. 0.2% w/v SDS, and 0.2 mg/ml proteinase K). After overnight incubation at 37° C., 350 μl of 3M NaCl was added to the mixture and cell debris was removed by centrifugation at 13000 g for 20 min at room temperature. DNA in the supernatant was precipitated with an equal volume of 100% ethanol. […]

IL-2 = IL-2 production by PBMC after PHA stimulation; type: cell-based, human; conditions: 2 to 4 days after PHA; LAC 10 μM added at the beginning; data not shown
Method: In the four systems of T and B cell activation and proliferation studied in the first section, the growth promoting activity of IL-2 is indirectly (for stimulation by PHA, anti-CD3, and anti-CD28 plus ionomycin), or directly (for SAC plus IL-2) involved. We then investigated the role of proteasome in IL-2Rα expression and IL-2 production. […] Under the experimental condition used, the viability of the LAC-treated cell was reasonable (>80% at 40 h) as described in the previous section as LAC was added only once initially. Moreover, no consistent change of IL-2 production in LAC-treated cells was a functional indication that the cell viability was reasonable and is not of a concern in interpreting the data. The results from this section indicate that IL-2Rα upregulation but not IL-2 production is proteasome-dependent, and the suppressed IL-2Rα expression likely contributes to LAC's inhibitory effect on T cells activation and proliferation. The Proteasome Activity is Critically Required Between G0 and G1/S Boundary in T Cells

20S proteasome = 20S proteasome (Rattus norvegicus, UniProt P28075); test: 20S proteasome chymotrypsin-like activity, positive control for LAC; type: biochemical
Method: Human PBMC were cultured in the absence or presence of 2 μg/ml PHA or 10 nM RAPA for 16 h-70 h as indicated. The cells were then harvested, and the chymotrypsin-like activity of whole cells lysates was assayed in the absence or presence of 20 μM proteasome inhibitor LAC. The data are presented as arbitrary units of fluorescence intensity per 20 μg lysate protein. The experiments were repeated three times and a representative one is shown. Samples are in duplicate and the mean±SD is shown. (A) Total chymotrypsin-like activity in the lysate of PBMC. (B) Lactacystin-inhibitable chymotrypsin-like activity in the lysate of 70 h PBMC. […] LAC was always added to the lysates during the proteinase assay 15 min before the addition of the substrate. The solid bars represent the activity in the presence of LAC. The net proteasome activities are calculated as the total activity minus the remaining activity after the LAC addition.
PBMC were cultured with or without PHA (2 μg/ml) and RAPA (10 nM). After 16 h-70 h, the cells were harvested and sonicated in 300 μl PBS on ice for 40 sec. Twenty micrograms of protein per sample from the cleared lysates were supplemented to 100 μl with 0.1 M Tris buffer (pH 8.2). […] The samples were then diluted to 2 ml with 0.1 M Tris pH8.2, and measured for their fluorescent intensity by a PTI fluorometer (Photo Technology International, South Brunswick, N.J.). […]

Tonsillar B cells = test: B cell proliferation induced with SAC plus IL-2 (3H-thymidine uptake); type: cell-based, human
Method: Lymphocytes were stimulated with various mitogens as indicated, and LAC at different concentrations was added at the beginning of the cultures. The cells were pulsed with 3H-thymidine between 48 h and 64 h. Samples were in triplicates. All the experiments were performed at least three times and similar results were obtained. Representative results are shown.
D: Tonsillar B cells stimulated with SAC (1:15,000 dilution) and IL-2 (100 μ/ml).
The role of proteasome in T cell activation and proliferation was first examined in PBMC, using the proteasome-specific inhibitor LAC. The PBMC were activated with various stimulants. LAC was added to the cells in the beginning of the culture (0 h) along with the stimulants. ^3H-thymidine uptake between 48 h and 64 h of 64 h cultures was used as a parameter for cell proliferation. […] Rather, it likely affects certain downstream events governing a more general process(es) in lymphocyte activation and proliferation.
Peripheral blood mononuclear cells (PBMC) and tonsillar T cells were prepared as described before (Luo et al., 1992, Transplantation 53:1071; Luo et al., 1993, Clin. & Exp. Immunol. 94:371). The cells were cultured in RPMI 1640 supplemented with 10% FCS, L-glutamine and antibiotics. ^3H-thymidine uptake was carried out as described previously (Luo et al., 1992, supra; Luo et al., 1993, supra).

- inhibition at 10 µM (20S proteasome; LAC at 10 μM): 90%
SMILES: CC(=O)N[C@@H](CSC(=O)[C@]1([C@@H](O)C(C)C)NC(=O)[C@H](C)[C@@H]1O)C(=O)O [LAC, lactacystin]
- upregulation of p21Cip1 in the G1 phase (p21^Cip1): strongly suppressed the upregulation
- stability in aqueous solutions [1]: unstable
- DNA breakdown (DNA laddering) (Tonsillar T cells; activated T cells (40 h post PHA), LAC for additional 9 h): clear DNA ladders
- DNA breakdown (DNA laddering) (Tonsillar T cells; resting T cells, 10 μM LAC, 24 h): no apparent DNA breakdown
- IL-2 production (IL-2): no consistent difference was found
- inhibitory effect on the 20S proteasome activity (20S proteasome; LAC increased to 20 μM): did not further increase the inhibitory effect
- inhibition of B cell proliferation (3H-thymidine uptake) (Tonsillar B cells; LAC added at 0 h): potently inhibited
- extent of inhibition of B cell proliferation (Tonsillar B cells; LAC at 5 μM): near-to-maximal inhibition
